In PubChem BioAssay (NCI):
Values joined by “and” are separate entries in the source; they are usually repeats but may differ in a detail not shown here. Identical values can stand only once.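 Test compounds were applied to cells in 96-well plates for 48 hours at 5 doses. GI50 = concentration required for 50% inhibition of growth. TGI is the concentration that stops growth completely.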

Tests used:
Experiment in all cases: NCI tumour cell line growth inhibition, 48 h
HCC-2998 colon = tested on: HCC-2998 colon
TK-10 renal = tested on: TK-10 renal
M14 melanoma = tested on: M14 melanoma
SK-MEL-5 melanoma = tested on: SK-MEL-5 melanoma
CAKI-1 renal = tested on: CAKI-1 renal
LXFL 529 NSCLC = tested on: LXFL 529 NSCLC
RPMI-8226 leukemia = tested on: RPMI-8226 leukemia
DMS 273 small cell lung = tested on: DMS 273 small cell lung
SN12C renal = tested on: SN12C renal
SK-MEL-2 melanoma = tested on: SK-MEL-2 melanoma
SK-MEL-28 melanoma = tested on: SK-MEL-28 melanoma
NCI-H226 lung = tested on: NCI-H226 lung
OVCAR-8 ovarian = tested on: OVCAR-8 ovarian
XF 498 CNS = tested on: XF 498 CNS
SNB-75 CNS = tested on: SNB-75 CNS
A549 NSCLC = tested on: A549 NSCLC
IGROV1 ovarian = tested on: IGROV1 ovarian
MOLT-4 leukemia = tested on: MOLT-4 leukemia
LOX IMVI melanoma = tested on: LOX IMVI melanoma
SF-539 CNS = tested on: SF-539 CNS
SNB-78 CNS = tested on: SNB-78 CNS
UACC-257 melanoma = tested on: UACC-257 melanoma
SR leukemia = tested on: SR leukemia
DLD-1 colon = tested on: DLD-1 colon
UO-31 renal = tested on: UO-31 renal
EKVX NSCLC = tested on: EKVX NSCLC
SW-620 colon = tested on: SW-620 colon
M19-MEL melanoma = tested on: M19-MEL melanoma
CCRF-CEM leukemia = tested on: CCRF-CEM leukemia
OVCAR-4 ovarian = tested on: OVCAR-4 ovarian
RXF 393 renal = tested on: RXF 393 renal
SF-268 CNS = tested on: SF-268 CNS
NCI-H460 lung = tested on: NCI-H460 lung
COLO 205 colon = tested on: COLO 205 colon
SK-OV-3 ovarian = tested on: SK-OV-3 ovarian
NCI-H23 lung = tested on: NCI-H23 lung
SF-295 CNS = tested on: SF-295 CNS
ACHN renal = tested on: ACHN renal
U251 CNS = tested on: U251 CNS
OVCAR-5 ovarian = tested on: OVCAR-5 ovarian
HL-60(TB) leukemia = tested on: HL-60(TB) leukemia
786-0 renal = tested on: 786-0 renal
MALME-3M melanoma = tested on: MALME-3M melanoma
HCT-116 colon = tested on: HCT-116 colon
A498 renal = tested on: A498 renal
HCT-15 colon = tested on: HCT-15 colon
OVCAR-3 ovarian = tested on: OVCAR-3 ovarian
HOP-18 NSCLC = tested on: HOP-18 NSCLC
K-562 leukemia = tested on: K-562 leukemia
RXF-631 renal = tested on: RXF-631 renal
NCI-H522 lung = tested on: NCI-H522 lung
SNB-19 CNS = tested on: SNB-19 CNS
KM20L2 colon = tested on: KM20L2 colon
HT29 colon = tested on: HT29 colon
DMS 114 small cell lung = tested on: DMS 114 small cell lung
UACC-62 melanoma = tested on: UACC-62 melanoma
HOP-92 NSCLC = tested on: HOP-92 NSCLC
HOP-62 NSCLC = tested on: HOP-62 NSCLC
KM12 colon = tested on: KM12 colon
P388/ADR leukemia = tested on: P388/ADR leukemia
P388 leukemia = tested on: P388 leukemia

**Q.** Which results are given for `N#CC(N)(C(=O)C(=O)NCCCNC(=O)C(=O)C(N)(C#N)c1ccc(Cl)cc1)c1ccc(Cl)cc1` (stereo not drawn)?
**A.** TGI (HCC-2998 colon): > 100 µM; TGI (TK-10 renal): > 100 µM; TGI (M14 melanoma): > 100 µM; TGI (SK-MEL-5 melanoma): > 100 µM; TGI (CAKI-1 renal): > 100 µM; TGI (LXFL 529 NSCLC): > 100 µM; TGI (RPMI-8226 leukemia): > 100 µM; TGI (DMS 273 small cell lung): > 100 µM; TGI (SN12C renal): > 100 µM; TGI (SK-MEL-2 melanoma): > 100 µM; TGI (SK-MEL-28 melanoma): > 100 µM; TGI (NCI-H226 lung): > 100 µM; TGI (OVCAR-8 ovarian): > 100 µM; TGI (XF 498 CNS): > 100 µM; TGI (SNB-75 CNS): > 100 µM; TGI (A549 NSCLC): > 100 µM; TGI (IGROV1 ovarian): > 100 µM; TGI (MOLT-4 leukemia): > 100 µM; TGI (LOX IMVI melanoma): > 100 µM; TGI (SF-539 CNS): > 100 µM; TGI (SNB-78 CNS): > 100 µM; TGI (UACC-257 melanoma): > 100 µM; TGI (SR leukemia): > 100 µM; TGI (DLD-1 colon): > 100 µM; TGI (UO-31 renal): > 100 µM; TGI (EKVX NSCLC): > 100 µM; TGI (SW-620 colon): > 100 µM; TGI (M19-MEL melanoma): > 100 µM; TGI (CCRF-CEM leukemia): > 100 µM; TGI (OVCAR-4 ovarian): > 100 µM; TGI (RXF 393 renal): > 100 µM; TGI (SF-268 CNS): > 100 µM; TGI (NCI-H460 lung): > 100 µM; TGI (COLO 205 colon): > 100 µM; TGI (SK-OV-3 ovarian): > 100 µM; TGI (NCI-H23 lung): > 100 µM; TGI (SF-295 CNS): > 100 µM; TGI (ACHN renal): > 100 µM; TGI (U251 CNS): > 100 µM; TGI (OVCAR-5 ovarian): > 100 µM; TGI (HL-60(TB) leukemia): > 100 µM; TGI (786-0 renal): > 100 µM; TGI (MALME-3M melanoma): > 100 µM; TGI (HCT-116 colon): > 100 µM; TGI (A498 renal): > 100 µM; TGI (HCT-15 colon): > 100 µM; TGI (OVCAR-3 ovarian): > 100 µM; TGI (HOP-18 NSCLC): > 100 µM; TGI (K-562 leukemia): > 100 µM; TGI (RXF-631 renal): > 100 µM; TGI (NCI-H522 lung): > 100 µM; TGI (SNB-19 CNS): > 100 µM; TGI (KM20L2 colon): > 100 µM; TGI (HT29 colon): > 100 µM; TGI (DMS 114 small cell lung): > 100 µM; TGI (UACC-62 melanoma): > 100 µM; TGI (HOP-92 NSCLC): > 100 µM; TGI (HOP-62 NSCLC): > 100 µM; TGI (KM12 colon): > 100 µM

**Q.** How did the GI50 (P388/ADR leukemia) turn out when `Nc1ncn(C2OC(CO)C(O)C2O)c(=O)n1` (stereo not drawn) was run?
**A.** 0.611 µM

**Q.** What about the TGI (P388/ADR leukemia) of the same compound?
**A.** 41.1 µM and 11.6 µM

**Q.** What about the GI50 (P388 leukemia) of the same compound?
**A.** 0.55 µM

**Q.** What about the TGI (P388 leukemia) of the same compound?
**A.** 36.7 µM and 7.61 µM

**Q.** What about the TGI (XF 498 CNS) of the same compound?
**A.** 61.2 µM and 11.4 µM

**Q.** And the TGI (EKVX NSCLC)?
**A.** 215 µM and > 72.8 µM and 26.5 µM

**Q.** And the TGI (M19-MEL melanoma)?
**A.** > 250 µM and 28.4 µM

**Q.** What about the TGI (HOP-18 NSCLC) of the same compound?
**A.** 250 µM and 125 µM

**Q.** And the GI50 (DMS 114 small cell lung)?
**A.** 9.47 µM and 1.17 µM
